In a melting point compilation (Tetko et al.):

melting point	Structure (SMILES)
208 to 210 °C	CCc1cc(=O)[nH]c(-c2ccc(Cl)nc2)n1
51 to 53 °C	COC(=O)c1sc(C)cc1O
45 to 47 °C	CCOc1ccc(OC)cc1N
77 to 79 °C	CC(=O)c1cccc(OCc2cn3ccccc3n2)c1
137 to 139 °C	COc1ccc(CNS(=O)(=O)c2c[nH]nc2N)cc1
159 to 161 °C	O=C(O)C1CCN(c2cncc3nnnn23)CC1
156 to 158 °C	O=C(O)CS(=O)(=O)Cc1ccc(Br)cc1
214 to 216 °C	O=C(O)CC1C(=O)Nc2ccccc21 (stereo unspecified)
69 to 71 °C	COc1ccc(Cl)cc1CS(=O)(=O)Cl
247 to 249 °C	Cc1cnc(O)c([N+](=O)[O-])c1
114 to 116 °C	O=C(O)c1cc(Cl)nc(Cl)n1
179 to 181 °C	CS(=O)(=O)N(c1ccc(N)cc1Br)S(C)(=O)=O
158 to 160 °C	O=S(=O)(Nc1nc2ccccc2nc1Cl)c1cccc(Cl)c1
103 to 105 °C	NS(=O)(=O)C1CN(C(=O)OCc2ccccc2)C1
121 to 123 °C	O=C(O)C1CCCN(c2nccs2)C1 (stereo unspecified)
162 to 164 °C	CC(=O)c1ccc2c(c1)CCC(=O)N2
124 to 126 °C	O=C(O)CCS(=O)(=O)c1ccc2c(c1)CCC2
109 to 111 °C	O=C(NCC1CCCCN1)c1ccccc1 (stereo unspecified)
87 to 89 °C	COC(=O)c1cc(N)c(Br)cc1F
145 to 147 °C	Cc1nnc(-c2ccccc2N)o1
176 to 180 °C	Nc1nc(-c2ccc3c(c2)OCO3)cs1

melting point	Structure (SMILES)
127 to 129 °C	Nc1ncc(Cc2ccc(Cl)cc2)s1
139 to 141 °C	Cc1c(C(=O)O)cc(Br)cc1S(=O)(=O)Cl
113 to 115 °C	Nc1ccc(S(=O)(=O)C2CCCC2)cc1
194 to 196 °C	Cc1c[nH]c(=O)n1-c1ccccc1N
115 to 117 °C	N#Cc1cccc(I)c1N
75 to 77 °C	CCOc1cc(C#N)ccc1O
92 to 94 °C	Cc1ccc(-n2cc(S(=O)(=O)Cl)cn2)cc1
169 to 171 °C	Cc1c(C(=O)O)cccc1S(=O)(=O)Cl
49 to 51 °C	N#Cc1cccc(OCC(F)F)n1
158 to 160 °C	O=C(O)C1CCN(c2ccc(Cl)cc2)C1=O (stereo unspecified)
43 to 45 °C	Nc1ccc(OCc2cccc(F)c2)c(F)c1
47 to 49 °C	Nc1cc(F)c(F)cc1Br
105 to 107 °C	O=C(O)C1(c2ccccc2)CCC1
188 to 190 °C	NS(=O)(=O)c1cnc2c(c1)CCC2
157 to 159 °C	O=S(=O)(NC1CCNCC1)c1ccccc1
117 to 119 °C	NCCNc1ncnc2sccc12
82 to 83 °C	Cc1n[nH]c(C)c1S(=O)(=O)N1CCOCC1
61 to 63 °C	NCc1cccc(NC(=O)C2CCC2)c1
111 to 113 °C	CN(C)c1ccc(Br)c(S(=O)(=O)Cl)c1
127 to 129 °C	Cc1cc(S(=O)(=O)Cl)ccc1OCC(=O)O
119 to 121 °C	Nc1cccc2c1CN(c1nccs1)C2

melting point	Structure (SMILES)
165 to 167 °C	N#Cc1ccc(N2CCN(c3ccccn3)CC2)nc1
170 to 172 °C	CC1(c2ccccc2)NC(=O)N(CC(=O)O)C1=O (stereo unspecified)
141 to 143 °C	COc1ccc2c(c1)CCC(=O)N2
75 to 77 °C	Nc1cc([N+](=O)[O-])ccc1OC(F)F
176 to 178 °C	Nc1ccc(NS(=O)(=O)c2ccc3c(c2)OCCO3)cc1
49 to 51 °C	O=C1CCCSc2ccc(Cl)cc21
224 to 226 °C	O=C(O)c1c2c(nc3ccccc13)CCN(Cc1ccccc1)C2
93 to 95 °C	CC(C)c1ccc(C(=O)O)c(O)c1
62 to 64 °C	CC(C)(C)OC(=O)C(C#N)c1nccnc1Cl (stereo unspecified)
171 to 173 °C	CC(O)c1ccc2c(c1)CC(=O)N2 (stereo unspecified)
65 to 67 °C	Cc1noc(-c2ccnc(Cl)c2)n1
117 to 119 °C	O=C(O)C1(c2ccc(Br)cc2)CCC1
174 to 176 °C	Nc1cc(-c2cccnc2)no1
33 to 35 °C	CCC(CC)CS(N)(=O)=O
149 to 151 °C	O=C(O)CN(Cc1ccccc1)S(=O)(=O)c1ccc(Cl)cc1
100 to 102 °C	N#Cc1ccc(Cl)cc1NCc1ccccn1
191 to 193 °C	Cc1ccc(S(=O)(=O)N(C)C)cc1NC(=S)NN
69 to 71 °C	CC(C)(C)C1CCN(S(=O)(=O)Cl)CC1
319 to 321 °C	Nc1cc2c(=O)[nH]cnc2cc1F
167 to 169 °C	Cc1cc(=O)c(C(=O)O)nn1-c1ccccc1
151 to 153 °C	CCc1cc(=O)[nH]c(-c2cccnc2)n1

More lines, now with the values behind:

Structure (SMILES)	melting point
NCc1cccc(NC(N)=O)c1	143 to 145 °C
NCCc1c[nH]c2cc(F)ccc12	74 to 76 °C
NNC(=O)Cc1cn2ccsc2n1	97 to 101 °C
Cc1[nH]c2ccc(Oc3ccccc3)cc2c(=O)c1C	289 to 291 °C
CC(=O)c1c(C)nn(C(C)C)c1C	74 to 76 °C
COc1ccc(CCNC(=O)CC(=O)NCCc2ccc(OC)cc2)cc1	161 to 163 °C
O=C(O)CCCOc1cccc(F)c1	51 to 53 °C
CC(O)c1cc(Cl)ccc1Cl (stereo unspecified)	60 to 64 °C
CN(c1ccccc1)c1ccccc1C(=O)O	105 to 107 °C
CNCCCc1cc(-c2ccc(F)cc2)n[nH]1	104 to 106 °C
O=C(Nc1ccccc1)OCC(F)(F)F	62 to 65 °C
CN(C)N=Cc1cnn(C)c1	70 to 72 °C
C/C(=N\O)c1scnc1C	144 to 146 °C
Nc1nnc(-c2cccc(OC(F)F)c2)o1	179 to 181 °C
O=C1C(=O)N(Cc2ccccc2)c2ccccc21	92 to 94 °C
O=C(O)c1ccc2noc(-c3ccccc3)c2c1	242 to 244 °C
NCC(O)COc1cccc(C(F)(F)F)c1 (stereo unspecified)	66 to 68 °C
O=C(O)c1ccc(OCCO)cc1	177 to 179 °C
Cn1ccnc1Sc1ccc(N)cc1	117 to 119 °C
CN1CC(=O)NC(=O)C1	99 to 101 °C
NNC(=O)Nc1ccc(C(=O)O)cc1	192 to 194 °C

Structure (SMILES)	melting point
COC(=O)CN1CCC(C(N)=O)CC1	126 to 128 °C
CCc1ccc(C(C)(C)C(=O)O)cc1	52 to 54 °C
O=C(O)c1cccn1Cc1cccs1	134 to 136 °C
O=C(O)Cn1ccnn1	214 to 216 °C
C=CC(=O)Nc1cccc(Br)c1	122 to 124 °C
CC(C)(C)CNC(N)=O	148 to 150 °C
Nc1ccnn1Cc1ccsc1	33 to 35 °C
ClCc1csc(COc2ccc(Cl)cc2)n1	75 to 77 °C
CC(C)(C)NC(=O)c1ccccc1N	124 to 125 °C
Cc1ccc(-c2csc(=O)n2CC(=O)O)cc1	128 to 130 °C
CC(C)Cn1nc(C(=O)O)c2ccccc2c1=O	171 to 173 °C
O=C(O)C1CC1c1ccc(OC(F)(F)F)cc1 (stereo unspecified)	96 to 98 °C
CCOC=C1C(=O)N(c2ccc(OCC)cc2)C(=O)c2ccccc21	175 to 177 °C
CCC1C(=O)NC(=S)N(c2ccc(Cl)cc2)C1=O (stereo unspecified)	148 to 150 °C
COc1ccc(C)cc1NC(=O)CNC(=O)CCl	121 to 123 °C
O=C(O)c1cscn1	195 to 197 °C
O=C(Nc1cccc(O)c1)c1cccs1	154 to 156 °C
NCCNC(CC(=O)O)C(N)=O (stereo unspecified)	161 to 163 °C
CC(C)(C)Cc1noc2nc(C3CC3)cc(C(=O)O)c12	164 to 166 °C
COc1cc2c(cc1NC(=O)OCC(F)(F)F)oc1ccccc12	122 to 124 °C
O=Cc1ccc(N2CCC(O)CC2)o1	103 to 105 °C

Structure (SMILES)	melting point
N#Cc1cccc(CNc2ccc3[nH]c(=O)[nH]c3c2)c1	261 to 263 °C
CCCc1cc(O)c2ccccc2n1	168 to 170 °C
NCc1ccc(-c2ccncc2)cc1	64 to 66 °C
CN(C)C1(C(=O)O)CCCSC1 (stereo unspecified)	196 to 198 °C
COc1ccc(F)cc1C(=O)CBr	74 to 76 °C
O=C(CO)NCc1ccccc1	101 to 103 °C
Cc1ccc(COc2cccc(N)c2)cc1	81 to 83 °C
CCC1(C(=O)O)CCOCC1	83 to 85 °C
Cn1ccnc1C(=O)c1ccncc1	138 to 140 °C
OCc1ncn(-c2ccccc2)n1	109 to 111 °C
Cc1ccccc1-n1c(S)nc2scc(-c3ccccc3)c2c1=O	157 to 159 °C
N#CCC(C(=O)O)c1ccccc1 (stereo unspecified)	64 to 66 °C
CCOC(=O)c1oc(N)nc1C	219 to 221 °C
CCOC(=O)c1noc(C)n1	32 to 34 °C
C=CC(=O)NC(=O)Nc1ccccc1	149 to 151 °C
Cn1ncc(CN)c1N	91 to 93 °C
Cc1nc(=O)c2cnn(-c3ccc([N+](=O)[O-])cc3)c2[nH]1	341 to 343 °C
O=C(O)Cc1cccc(OCc2ccc(Cl)cc2)c1	126 to 128 °C
Sc1nnc(NCCc2ccccc2)s1	143 to 145 °C
CC(CC(=O)O)c1ccc(F)cc1F (stereo unspecified)	66 to 68 °C
O=C(O)C(Oc1ccccc1)c1ccccc1 (stereo unspecified)	103 to 105 °C

Structure (SMILES)	melting point
O=C(O)Cc1cccc(OCc2ccncc2)c1	138 to 140 °C
Cn1c(N)nnc1S	278 to 280 °C
CCc1c(C)sc2[nH]c(COCC(=O)O)nc(=O)c12	193 to 195 °C
COc1ccc(Br)cc1C(=O)O	112 to 114 °C
CC(C)(Sc1ccc(Br)cc1)C(=O)O	109 to 111 °C
O=C(O)C1=COCCO1	164 to 166 °C
O=C(O)CCCNC(=O)c1ccccc1	87 to 89 °C
COC(=O)C(C#N)c1nc2ccccc2nc1Cl (stereo unspecified)	197 to 199 °C
Nc1c(C(=O)O)[nH]c(=O)[nH]c1=O	300 to 302 °C
Sc1nc(-c2ccccc2Cl)no1	100 to 102 °C
O=C(O)CCc1c(-c2ccccc2)[nH]c2ccc(F)cc12	161 to 163 °C
CCC(CC)(Cc1nc2ccccc2s1)C(=O)O	143 to 145 °C
O=C(CCl)Nc1ccc(O)cc1	145 to 147 °C
COC(=O)c1ccc(Oc2ccc(Cl)cc2N)cc1	83 to 85 °C
O=C(c1ccc(Cl)cc1)c1cccnc1	87 to 89 °C
COC(=O)NC1CCC(O)CC1 (stereo unspecified)	139 to 141 °C
CS(=O)(=O)CCCI	59 to 61 °C
Nc1nc(SCc2ccccc2)ns1	104 to 106 °C
Cn1c(O)nnc1S	216 to 218 °C
CC(C(=O)O)C1CCOCC1 (stereo unspecified)	39 to 41 °C
